Drawing on PubChem BioAssay (NCI), this text covers TGI for 15 compounds.

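Cultured in 96-well plates, cells were exposed to test compound for 48 hours across five concentrations. At the TGI there is no net growth.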 A value given as a limit tells only on which side of the number the result lay.

Holding throughout (assay): NCI-60 cell line screen, 48 h
In test [1] the test system is EKVX NSCLC.
Test [2] relates to HS 578T breast.
Test [3] concerns NCI-H226 lung.
The subject of test [4] is HCC-2998 colon.
For test [5], the system named is MALME-3M melanoma.
In test [6] the test system is HL-60(TB) leukemia.
Test [7] concerns CCRF-CEM leukemia.
Test [8] relates to SF-295 CNS.
Test [9] concerns SF-539 CNS.
Test [10] has as its system K-562 leukemia.
In test [11] the test system is U251 CNS.
The test system of test [12] is IGROV1 ovarian.
Test [13] concerns HCT-15 colon.
Test [14] has as its system OVCAR-5 ovarian.
For test [15], the system named is MDA-MB-231 breast.
Test [16] concerns OVCAR-8 ovarian.
The test system of test [17] is KM12 colon.
Test [18] concerns RXF 393 renal.
The subject of test [19] is SK-OV-3 ovarian.

`FC(F)(F)c1ccc(Cc2nc3cc4ccccc4cc3[nH]2)cc1`: the TGI in [1], in test [2], in [3], in test [4], in test [5] and in [6] was > 100 µM throughout. Besides, the TGI in [7], in [8], in [9], in test [10], in [11] and in test [12] was > 100 µM each time. Also, the TGI in test [13], in test [14], in test [15], in [16], in [17] and in test [18] was > 100 µM each time.

With `CC1=NN(c2nc(N)nc(CBr)n2)C(C)(C)C1`, the TGI in [1] is 15 µM; in test [2] it was 38.2 µM; in test [3], 12.2 µM; in test [4], 30.6 µM; in test [5], 7.54 µM; in test [7] it was 0.983 µM. For the same compound, the TGI in [8] was 24.8 µM; in test [19] it was 38.7 µM; in test [9], 5.25 µM; in test [10] it was > 100 µM; in test [11] it was 16.9 µM; in [12], 3.29 µM. In addition, the TGI in test [13] came out at 16.6 µM; in [14], 13.8 µM; in [15], 19.8 µM; in test [16] it was 18.4 µM; in test [17] it was 23.5 µM; in test [18], 12 µM.

For the compound `COC(=O)/C(=N\NC(N)=O)C(C(=O)C(=O)Nc1ccccc1OC)c1nc2ccc([N+](=O)[O-])cc2[nH]c1=O` (stereo not given), the TGI in test [1], in test [2], in [3], in test [4], in test [5] and in test [6] was > 100 µM throughout. Further, the TGI in [7], in test [8], in test [19], in test [9], in test [10] and in [11] was > 100 µM in each case. The TGI in test [12], in test [13], in [14], in test [15], in [16] and in test [17] was > 100 µM each time. The TGI in test [18] is > 100 µM.

Turning to `CC(C)(C)c1cc(-c2cc(C(C)(C)C)[nH]n2)n[nH]1`, the TGI in test [1], in test [2], in [3], in test [4], in test [5] and in [6] was > 100 µM each time. For the same compound, the TGI in [7], in [8], in test [19], in [9], in test [10] and in test [11] was > 100 µM each time. Moreover, the TGI in test [12], in [13], in test [14], in test [15] and in test [18] was > 100 µM in each case.

Consider `C=CCNC(=S)N=Nc1c(O)n(CN2CCOCC2)c2ccc([N+](=O)[O-])cc12`, for which the TGI is > 100 µM in test [1]; > 100 µM in test [2]; > 100 µM in test [3]; 90.3 µM in [4]; > 100 µM in [5]; > 100 µM in test [6]. For the same compound, the TGI in [7], in [8], in test [19], in test [9], in test [10] and in test [11] was > 100 µM throughout. Further, the TGI in test [12], in test [13], in [14], in test [15], in test [16] and in test [17] was > 100 µM throughout. In test [18], the TGI is > 100 µM.

On to `O=C(c1cc2ccccc2[nH]1)N1C2CCC1CN(CCOC(c1ccc(F)cc1)c1ccc(F)cc1)CC2` (stereo not given), for which the TGI in [1], in [2], in test [3], in [4], in test [5] and in [6] was > 100 µM each time. Moreover, the TGI in test [7], in test [8], in [19], in [9], in test [10] and in test [11] was > 100 µM throughout. In addition, the TGI in [12], in test [13], in test [14], in test [15], in [16] and in test [17] was > 100 µM each time. This compound also registered a TGI in test [18] of 8.41 µM.

Regarding `c1ccc2c(CN3CCN(Cc4c[nH]c5ccccc45)CC3)c[nH]c2c1`, the TGI came to 39.4 µM in [1]; 36.2 µM in test [2]; 37.7 µM in [3]; 3.29 µM in test [4]; 29.5 µM in test [5]; 39.3 µM in test [6]. For the same compound, the TGI was > 100 µM in [7]; 31.1 µM in [8]; 61.8 µM in [19]; 39.7 µM in test [10]; 29.3 µM in test [11]; 27.4 µM in test [12]. The TGI is 44.4 µM in [13]; 36.4 µM in test [14]; 31.2 µM in [15]; 37.6 µM in [16]; 33.1 µM in test [17]; 28.8 µM in [18].

With `Clc1c(Cl)c(Cl)c2c(nnn2C2CCCO2)c1Cl` (stereo not given), the TGI in test [1] is 73.4 µM; in [2], 59 µM; in test [3], > 100 µM; in test [4], > 100 µM; in test [5] it was 80.4 µM; in test [6], 38.5 µM. Further, the TGI in test [7] is 77.9 µM; in [8], > 100 µM; in test [19] it was > 100 µM; in test [9], > 100 µM; in test [10] it was 48.7 µM; in test [11], > 100 µM. For the same compound, the TGI in test [12] was > 100 µM; in test [13] it was 67 µM; in test [14] it was > 100 µM; in [15], > 100 µM; in test [16], > 100 µM; in test [18], > 100 µM.

In the case of `COc1cc(C(=O)/C=C/c2ccc(OCCSCCCCCCCCCCSCCOc3ccc(/C=C/C(=O)c4cc(OC)c(OC)c(OC)c4)cc3)cc2)cc(OC)c1OC`, the TGI in [1], in test [2], in [4], in test [5], in [6] and in test [7] was > 100 µM throughout. Also, the TGI in [8], in test [9], in test [10], in test [11], in test [12] and in test [13] was > 100 µM each time. The TGI in test [14], in test [15], in [16], in test [17] and in test [18] was > 100 µM each time.

With `CCOC(=O)CCC(NC(=O)Cc1ccc(Nc2nc3ccccc3nc2-c2cccs2)cc1)C(=O)OCC` (stereo not given), the TGI in [1], in [2], in test [3], in test [4], in test [5] and in test [6] was > 100 µM throughout. The TGI in test [7], in test [8], in test [19], in test [9], in test [10] and in [11] was > 100 µM throughout. The TGI is > 100 µM in test [13]; > 100 µM in [14]; > 100 µM in test [15]; > 100 µM in [17]; 52.5 µM in test [18].

As to `COc1ccc(N=C2S/C(=N\C(=Nc3ccccc3)SCc3ccccc3)N(c3ccccc3)C2=Nc2ccc(OC)cc2)cc1`, the TGI in [1], in test [2], in [3], in test [4], in [5] and in test [6] was > 100 µM in each case. Besides, the TGI in test [7], in test [10], in [12], in [13], in test [15] and in test [16] was > 100 µM throughout. The TGI in test [17] and in [18] was > 100 µM each time.

Consider `COc1cc2c(cc1C[C@H]1[C@@H]3C[C@H]4c5c(c6ccccc6n5C)C[C@@H]([C@@H]3CO[C@]1(C)OC(C)=O)N4C)c1c(n2C)C2C[C@H]3C(C(C)=O)=COC[C@H]3[C@H](C1)N2C`, for which the TGI in [1] stood at 2.24 µM; in test [2], 13.3 µM; in test [3] it was 21.7 µM; in [4], 0.246 µM; in [5] it was 6.42 µM; in [7] it was 5.84 µM. Besides, the TGI in [8] was 10.4 µM; in test [19], > 25 µM; in [9], 5.87 µM; in test [10] it was > 25 µM; in test [11], > 25 µM; in [12], > 25 µM. The TGI in test [13] is 6.25 µM; in test [14] it was 11.6 µM; in test [15], 11.2 µM; in [16], 8.83 µM; in [17] it was 5.27 µM; in test [18], 6.04 µM.

Turning to `CC(C)C1OC(N)=C(C#N)C1(C#N)C#N` (stereo not given), the TGI was > 100 µM in test [1]; > 100 µM in test [2]; > 100 µM in test [3]; 58 µM in [4]; > 100 µM in test [5]; 35.5 µM in test [6]. Also, the TGI is 91.4 µM in test [7]; > 100 µM in [8]; > 100 µM in test [19]; > 100 µM in [9]; > 100 µM in [10]; > 100 µM in [11]. For the same compound, the TGI in test [12], in test [14], in test [15], in [16], in test [17] and in test [18] was > 100 µM throughout.

For the compound `Cc1ccc(/C=N/n2c(Cc3ccccc3)n[nH]c2=O)cc1`, the TGI in test [1], in test [2], in [3], in test [4], in test [5] and in [6] was > 100 µM each time. In addition, the TGI in [7], in test [8], in test [9], in [10], in test [12] and in [13] was > 100 µM in each case. Also, the TGI in test [14], in test [15], in test [16], in test [17] and in [18] was > 100 µM in each case.

`CC1(C)CC(O)C2=C(O1)C(=O)c1ncccc1C2=O` (stereo not given): the TGI in test [1] turned out to be 6.76 µM; in test [2], 6.56 µM; in test [3], 3.74 µM; in [4], 14.6 µM; in [5], 3.17 µM; in [6], 4.15 µM. For the same compound, the TGI is > 20.7 µM in test [7]; 3.35 µM in test [8]; 27.4 µM in [19]; 3.28 µM in [9]; 3.21 µM in test [11]; 6.14 µM in test [12]. Also, the TGI in [13] amounted to 12 µM; in test [14] it was 3.72 µM; in [15], 5.92 µM; in test [16] it was 9.34 µM; in test [17], 8.17 µM; in [18], 12.3 µM.
